Results reported in patent US11744273B2, “Sweetness enhancing volatile compositions and methods of increasing perceived sweetness of a comestible” (University of Florida Research Foundation, Inc., priority 2016, dated 2023).

Assays:
Format in all cases: in vivo, human
overall liking = experiment: Blueberry sensory panels; PLS analysis, overall liking (Table 7); conditions: response Overall Liking
Procedure: (§1) Sensory analysis was conducted similar to described above for tomatoes and strawberries in Examples 1 and 3. […] Panelists were trained with the scaling methods and were encouraged to return for the remainder of the study. Panelists rated overall liking, texture liking, sweetness, sourness, and flavor intensity using hedonic general Labeled Magnitude Scales (gLMS) (−100 to +100; −100=greatest disliking of any kind, +100=greatest liking of any kind) and intensity gLMS (0 to +100; 0=no sensation, 100=most intense sensation of any kind), which allow for improved comparison between panelists and between years (see Bartoshuk, L. M., et al., 2004 and Bartoshuk, L. M., et al., 2005). […] Ratings were recorded using Compusense software.
(§2) Soluble solids content (SSC), titratable acidity (TA), and volatiles were quantified as described above for tomato and strawberries. […] Elutions were run on an Agilent 7890A Gas Chromatograph Flame Ionization Detector (GC-FID) DB-5 column (30 m length×[…]) for quantification and on an Agilent 7890A Gas Chromatograph coupled to an Agilent 5977A Mass Selective Detector (GC/MSD) for qualification (Agilent, Santa Clara, Calif.). Integrated peak area of each signal was normalized for elution, fitted to relative pure chemical response, corrected for sample mass, and expressed as nanograms per gram fresh weight per hour (ng gFW-1 h-1). […]

sweetness = experiment: Blueberry sensory panels; PLS analysis, sweetness (Table 7); conditions: for PLS Coefficient: response Sweetness
Procedure: Sensory analysis was conducted similar to described above for tomatoes and strawberries in Examples 1 and 3. […] Panelists were trained with the scaling methods and were encouraged to return for the remainder of the study. Panelists rated overall liking, texture liking, sweetness, sourness, and flavor intensity using hedonic general Labeled Magnitude Scales (gLMS) (−100 to +100; −100=greatest disliking of any kind, +100=greatest liking of any kind) and intensity gLMS (0 to +100; 0=no sensation, 100=most intense sensation of any kind), which allow for improved comparison between panelists and between years (see Bartoshuk, L. M., et al., 2004 and Bartoshuk, L. M., et al., 2005). Panelists were also asked to rate the intensity of taste and flavor sensations of a hypothetical ideal blueberry on this scale. Each panelist received two to four berries of five to six genotypes in a single panel in a Williams design, which was generated by Compusense 5.6 (Compusense Inc., Guelph, Ontario, Canada). They were asked to eat the blueberries of each genotype at once, and to take a bite of cracker and sip of water in between samples. Ratings were recorded using Compusense software.
Soluble solids content (SSC), titratable acidity (TA), and volatiles were quantified as described above for tomato and strawberries. The volatiles were collected for two hours via dynamic headspace with HaySep Q 80-100 porous polymer adsorbent (Valco Instruments Company Inc., Houston, Tex.) and eluted with methylene chloride and nonyl acetate as an elution standard. Elutions were run on an Agilent 7890A Gas Chromatograph Flame Ionization Detector (GC-FID) DB-5 column (30 m length×[…]) for quantification and on an Agilent 7890A Gas Chromatograph coupled to an Agilent 5977A Mass Selective Detector (GC/MSD) for qualification (Agilent, Santa Clara, Calif.). Integrated peak area of each signal was normalized for elution, fitted to relative pure chemical response, corrected for sample mass, and expressed as nanograms per gram fresh weight per hour (ng gFW-1 h-1). Response fitting was calculated using the response factor of pure chemical standards (Sigma-Aldrich, St. Louis, Mo.) run on the same instrument.
Pair-wise correlations and significance between sensory measurements and primary bio-chemical components were calculated, with panelist as a random effect. Least Square Means (LSMeans) of the sensory data for each sample were obtained to account of the random effect of panelist. A partial least squares (PLS) analysis was constructed in JMP1 Pro 10 (SAS Institute Inc., Cary, N.C.) to reveal effectors of sensory ratings (see, e.g., Togari N., et al., 1995; Hough, G., et al., 1996; deKermadec, F., et al., 1997; Toscas, P. J., et al., 1999; and Tenenhaus, M., et al., 2005). The response variables (Y) considered corresponded to LSMeans of overall liking, sweetness, sourness, and blueberry flavor intensity. Glucose, fructose, sucrose, TA, pH, and 52 volatile compounds were considered as explanatory variables (X). The inclusion of texture liking was evaluated independently given that no explanatory physical measure was made for sample texture. […] The model was created without texture for analysis.
• Top six and bottom six biochemical measures explaining sensory responses as determined by partial least squares (PLS) analysis. […]

sourness = experiment: Blueberry sensory panels; PLS analysis, sourness (Table 7); conditions: response Sourness
Description: Panelists were trained with the scaling methods and were encouraged to return for the remainder of the study. […] Panelists were also asked to rate the intensity of taste and flavor sensations of a hypothetical ideal blueberry on this scale. Each panelist received two to four berries of five to six genotypes in a single panel in a Williams design, which was generated by Compusense 5.6 (Compusense Inc., Guelph, Ontario, Canada). They were asked to eat the blueberries of each genotype at once, and to take a bite of cracker and sip of water in between samples. Ratings were recorded using Compusense software.
Soluble solids content (SSC), titratable acidity (TA), and volatiles were quantified as described above for tomato and strawberries. […] Integrated peak area of each signal was normalized for elution, fitted to relative pure chemical response, corrected for sample mass, and expressed as nanograms per gram fresh weight per hour (ng gFW-1 h-1). Response fitting was calculated using the response factor of pure chemical standards (Sigma-Aldrich, St. Louis, Mo.) run on the same instrument.
Pair-wise correlations and significance between sensory measurements and primary bio-chemical components were calculated, with panelist as a random effect. […] The inclusion of texture liking was evaluated independently given that no explanatory physical measure was made for sample texture. […]

[1] = system: blueberry flavor intensity; experiment: Blueberry sensory panels; PLS analysis, blueberry flavor intensity (Table 7); conditions: response Flavor
Procedure: as §1, §2

[2] = system: perceived sweetness intensity; experiment: Strawberry consumer panel; initial multiple regression of volatiles against perceived sweetness intensity independent of glucose, fructose or sucrose (Table 5); conditions: standard least squares; for FRUCTOSE t RATIO: sweetness intensity independent of fructose; for GLUCOSE t RATIO: sweetness intensity independent of glucose; for SUCROSE t RATIO: sweetness intensity independent of sucrose
Procedure: Step-wise multiple regressions of all volatile compounds against perceived intensity of sweetness is performed independent of either glucose, fructose, or sucrose concentration, separately (Table 5).
At least 100 grams or seven berries of each sample were removed from 4° C. dark overnight storage prior to volatile collection. Samples were homogenized in a blender prior to splitting into three 15 gram replicates for immediate capturing of volatile emission and remainder of sample frozen in N2 (I) and stored at −80° C. for later sugar and acid quantification.
Oven temperatures programmed from 40° C. (0.5 min hold) at 5° C. min^−1 to 250° C. (4 min hold). Signals captured with a flame ionization detector (FID) at 280° C. Peaks from FID signal were integrated manually with Chemstation B.04.01 software (Agilent Technologies, Santa Clara, Calif.). Volatile emission (ng gFW^−1 h^−1) calculated based on individual peak area relative to sample elution standard peak area.
All consumer panels were approved by the University of Florida Institutional Review Board. […] Ages of panelist ranged from 18 to 71, with a median age of 24. Panelists self-classified themselves as 98 White or Caucasian, 11 Black or African-American, 1 Native American, Alaska Native or Aleutian, 41 Asian/Pacific Islander, and 15 Other. […] Fresh, fully-ripe strawberry fruit was removed from overnight 4° C. dark storage and allowed to warm to room temperature prior to sensory analysis. Each panelist was given one to two whole strawberries for evaluation, depending on cultivar availability. Panelist took a bite of each sample, chewed, and swallowed it. Ratings for overall liking and liking for texture were scaled on hedonic general labeled magnitude scale (gLMS) in the context of all pleasure/displeasure experiences. […] Scales were employed to mediate valid comparisons across subjects and sessions.
For the first analysis, individual volatile compound concentrations were regressed using the “enter” method in SPSS Statistics (IBM Corp, Armonk, N.Y., USA).

[3] = system: strawberry flavor intensity; experiment: Strawberry consumer panel; correlation of volatiles with strawberry flavor intensity
Procedure: Quantification of volatiles in an elution was performed on an Agilent 7890A Series gas chromatograph (GC) (carrier gas; He at 3.99 mL min^−1; splitless injector, temperature 220° C., injection volume 2 μl) equipped with a DB-5 column ((5%-Phenyl)-methylpolysiloxane, 30 m length×250 μm i.d.×1 μm film thickness; Agilent Technologies, Santa Clara, Calif., USA). Oven temperatures programmed from 40° C. (0.5 min hold) at 5° C. min^−1 to 250° C. (4 min hold). Signals captured with a flame ionization detector (FID) at 280° C. Peaks from FID signal were integrated manually with Chemstation B.04.01 software (Agilent Technologies, Santa Clara, Calif.). Volatile emission (ng gFW^−1 h^−1) calculated based on individual peak area relative to sample elution standard peak area. GC-Mass Spectrometry (MS) analysis of elution on an Agilent 6890N GC in tandem with an Agilent 5975 MS (Agilent Technologies, Santa Clara, Calif., USA) and retention time comparison with authentic standards (Sigma Aldrich, St Louis, Mo., USA) for volatile identification (Schmelz, 2001).
All consumer panels were approved by the University of Florida Institutional Review Board. Over the course of two annual seasons 166 strawberry consumers (58 male, 108 female) were recruited to evaluate strawberry cultivars. Ages of panelist ranged from 18 to 71, with a median age of 24. Panelists self-classified themselves as 98 White or Caucasian, 11 Black or African-American, 1 Native American, Alaska Native or Aleutian, 41 Asian/Pacific Islander, and 15 Other. An average of 106 (range of 98-113) panelists evaluated between three and five cultivars per session (Tieman, 2012). Fresh, fully-ripe strawberry fruit was removed from overnight 4° C. dark storage and allowed to warm to room temperature prior to sensory analysis. Each panelist was given one to two whole strawberries for evaluation, depending on cultivar availability. Panelist took a bite of each sample, chewed, and swallowed it. Ratings for overall liking and liking for texture were scaled on hedonic general labeled magnitude scale (gLMS) in the context of all pleasure/displeasure experiences. Perceived intensity of sweetness, sourness, and strawberry flavor were scaled in context of all sensory experiences using sensory gLMS (Bartoshuk, 2003; Bartoshuk, 2005; Tieman, 2012). Scales were employed to mediate valid comparisons across subjects and sessions.
Means and standard errors for consumer, physical, and metabolite measurements were determined from all replicates using JMP (Version 8. SAS Institute Inc., Cary, N.C., 1989-2008). Bivariate analysis among individual measurements of samples allowed for linear fit, which includes summary of fit, analysis of variance, t-test, and correlation analysis for density ellipse. […]

SMILES	PLS Coefficient (overall liking)	PLS Coefficient (sweetness)	PLS Coefficient (sourness)	PLS Coefficient [1]	FRUCTOSE t RATIO [2]	GLUCOSE t RATIO [2]	SUCROSE t RATIO [2]	correlation with flavor intensity [3]	independent enhancement of perception of sweetness (sweetness; multivariate regression analysis)
CC12CCC(CC1)C(C)(C)O2 [1,8-Cineole]	−0.1912	−0.1925	0.1444	−0.0876					
CCCC(=O)OCC [105-54-4]					2.533	2.493	0.034	significant positive correlation with flavor intensity	
CCCC(=O)OC [623-42-7]					1.455	1.452	0.419	significant positive correlation with flavor intensity	
COC1=C(C)OC(C)C1=O (centres unmarked) [4077-47-8]					2.414	2.185	0.299	significant positive correlation with flavor intensity	
C=C1CC[C@H]2O[C@]2(C)CC[C@@H]2[C@@H]1CC2(C)C [β-Caryophyllene oxide, β-caryophyllene oxide]	0.1455	0.1418		0.1527					independently enhancing perception of sweetness
